Assay [1] has as its target T1, 3-oxoacyl-[acyl-carrier-protein] synthase 3 (Escherichia coli, UniProt C3TDZ2).
T1 sequence (C3TDZ2 whole entry): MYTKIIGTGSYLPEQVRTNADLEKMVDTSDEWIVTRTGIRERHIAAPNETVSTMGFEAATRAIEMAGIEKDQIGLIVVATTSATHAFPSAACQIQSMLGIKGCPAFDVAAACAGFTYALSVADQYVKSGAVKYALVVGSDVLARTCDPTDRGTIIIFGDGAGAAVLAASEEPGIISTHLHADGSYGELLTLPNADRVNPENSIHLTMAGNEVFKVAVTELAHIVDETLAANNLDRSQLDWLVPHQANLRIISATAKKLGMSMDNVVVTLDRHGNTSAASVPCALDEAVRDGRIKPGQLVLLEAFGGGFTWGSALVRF
Kind of assay: Inhibitory activity against FabH from Escherichia coli ANSI.

Assay [2] concerns the target T2, 3-oxoacyl-[acyl-carrier-protein] synthase 2 (Mycobacterium tuberculosis (strain ATCC 25618 / H37Rv), UniProt P9WQD7).
T2 sequence (P9WQD7 whole entry): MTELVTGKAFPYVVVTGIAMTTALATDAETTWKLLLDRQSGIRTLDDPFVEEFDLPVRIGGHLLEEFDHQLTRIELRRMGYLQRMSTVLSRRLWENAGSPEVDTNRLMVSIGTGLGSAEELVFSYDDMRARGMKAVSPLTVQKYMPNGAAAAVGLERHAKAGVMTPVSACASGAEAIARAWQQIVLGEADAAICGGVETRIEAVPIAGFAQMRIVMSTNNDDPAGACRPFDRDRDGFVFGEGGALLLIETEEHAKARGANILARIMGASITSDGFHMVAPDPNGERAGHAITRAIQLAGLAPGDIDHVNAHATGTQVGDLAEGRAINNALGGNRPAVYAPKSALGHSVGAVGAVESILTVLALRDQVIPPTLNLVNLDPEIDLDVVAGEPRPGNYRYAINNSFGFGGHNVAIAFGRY
As to the kind of experiment: Inhibitory activity against KasB from Mycobacterium tuberculosis H37Rv.

Assay [3] addresses T3, 3-oxoacyl-[acyl-carrier-protein] synthase 1 (Escherichia coli (strain K12), UniProt P0A953).
T3 sequence (P0A953 whole entry): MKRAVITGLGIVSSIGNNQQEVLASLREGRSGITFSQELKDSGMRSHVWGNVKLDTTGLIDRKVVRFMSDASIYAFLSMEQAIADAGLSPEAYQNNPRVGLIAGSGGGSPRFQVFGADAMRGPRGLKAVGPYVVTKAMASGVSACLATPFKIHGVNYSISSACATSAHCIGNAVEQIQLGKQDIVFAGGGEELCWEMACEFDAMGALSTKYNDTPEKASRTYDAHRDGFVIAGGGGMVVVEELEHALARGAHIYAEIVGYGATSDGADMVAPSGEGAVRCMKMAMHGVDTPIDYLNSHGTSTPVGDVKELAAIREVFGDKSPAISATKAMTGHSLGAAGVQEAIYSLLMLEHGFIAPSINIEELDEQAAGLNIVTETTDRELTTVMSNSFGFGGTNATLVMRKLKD
As to the kind of experiment: Inhibitory activity against FabB from Escherichia coli ANSI.

Assay [4] addresses T4, 3-oxoacyl-[acyl-carrier-protein] synthase 3 (Mycobacterium tuberculosis (strain ATCC 25618 / H37Rv), UniProt P9WNG3).
T4 sequence (P9WNG3 whole entry): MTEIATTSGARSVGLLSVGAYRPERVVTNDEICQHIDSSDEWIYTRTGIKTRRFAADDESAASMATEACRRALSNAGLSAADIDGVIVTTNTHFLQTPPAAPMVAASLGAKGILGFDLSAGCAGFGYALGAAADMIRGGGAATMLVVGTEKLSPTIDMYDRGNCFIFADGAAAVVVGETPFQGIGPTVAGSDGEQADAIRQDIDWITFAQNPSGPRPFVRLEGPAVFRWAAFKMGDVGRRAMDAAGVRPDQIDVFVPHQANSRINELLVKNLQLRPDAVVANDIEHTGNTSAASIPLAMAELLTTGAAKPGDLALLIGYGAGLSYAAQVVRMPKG
As to the kind of experiment: Inhibitory activity against FabH from Mycobacterium tuberculosis H37Rv.

SMILES strings stand for the structures.

In the case of `CC1C(=O)SC(C)(CC2CC2)C1=O` (stereo not given) [5-cyclopropylmethyl-3,5-dimethyl-4-hydroxy-5H-thiophen-2-one], the IC50 in assay [1] is > 0.1 mM.
For the molecule `CC1C(=O)SC(C)(C(C)c2ccccc2)C1=O` (stereo not given) [3,5-dimethyl-4-hydroxy-5-(1-phenylethyl)-5H-thiophen-2-one], the IC50 in assay [2], in assay [3], in assay [4] and in assay [1] was > 1 mM each time.
As to `CCCCCCCCCCC1(C)SC(=O)C(C)C1=O` (stereo not given) [5-Decyl-4-hydroxy-3,5-dimethyl-5H-thiophen-2-one], the IC50 in assay [4] is > 0.1 mM; in assay [1], 0.1 mM.
The like results for `CC1C(=O)SC(C)(Cc2ccc(Cl)c(Cl)c2)C1=O` (stereo not given) [5-(3,4-dichlorobenzyl)-3,5-dimethyl-4-hydroxy-5H-thiophen-2-one] were, in that order, > 0.1 mM and > 0.1 mM.
Take `C=CCCC1(C)SC(=O)C(C)C1=O` (stereo not given) [5-(but-3-enyl)-3,5-dimethyl-4-hydroxy-5H-thiophen-2-one]: the IC50 in assay [2], in assay [3], in assay [4] and in assay [1] was > 1 mM each time.
Turning to `CCCCCCCCCCCC1(C)SC(=O)C(C)C1=O` (stereo not given) [3,5-dimethyl-4-hydroxy-5-undecyl-5H-thiophen-2-one], the IC50 in assay [2] was > 1 mM; in assay [3] it was > 1 mM; in assay [1], > 0.1 mM.
Turning to `Cc1cc(C)c(CC2(C)SC(=O)C(C)C2=O)c(C)c1` (stereo not given) [3,5-dimethyl-4-hydroxy-5-(2,4,6-trimethylbenzyl)-5H-thiophen-2-one], the IC50 in assay [2], in assay [3], in assay [4] and in assay [1] was > 1 mM throughout.
For the molecule `COc1cccc(CC2(C)SC(=O)C(C)C2=O)c1` (stereo not given) [4-Hydroxy-5-(3-methoxy-benzyl)-3,5-dimethyl-5H-thiophen-2-one], the IC50 in assay [2], in assay [3], in assay [4] and in assay [1] was > 1 mM throughout.
Consider `CC1C(=O)SC(C)(Cc2ccc(C(F)(F)F)cc2)C1=O` (stereo not given) [3,5-dimethyl-4-hydroxy-5-(4-trifluoromethylbenzyl)-5H-thiophen-2-one], for which the IC50 in assay [4] was > 0.1 mM.
On to `CC1C(=O)SC(C)(CCCc2ccccc2)C1=O` (stereo not given) [3,5-dimethyl-4-hydroxy-5-(3-phenylpropyl)-5H-thiophen-2-one], for which the IC50 in assay [2], in assay [3], in assay [4] and in assay [1] was > 1 mM throughout.
Turning to `CCC(C)C1(C)SC(=O)C(C)C1=O` (stereo not given) [3,5-dimethyl-4-hydroxy-5-(1-methylpropyl)-5H-thiophen-2-one], in assay [4], the IC50 was > 0.1 mM.
Regarding `CC1C(=O)SC(C)(Cc2ccc3ccccc3c2)C1=O` (stereo not given) [3,5-dimethyl-4-hydroxy-5-(naphthalen-2-ylmethyl)-5H-thiophen-2-one], the IC50 in assay [2] is > 1 mM; in assay [3] it was > 1 mM; in assay [4], > 0.1 mM; in assay [1], > 1 mM.
On to `CC1C(=O)SC(C)(Cc2ccc(F)cc2)C1=O` (stereo not given) [3,5-dimethyl-5-(4-fluorobenzyl)-4-hydroxy-5H-thiophen-2-one], for which the IC50 in assay [2] was > 1 mM; in assay [3], > 1 mM; in assay [4], > 0.1 mM; in assay [1], > 1 mM.
Turning to `CC1C(=O)SC(C)(CC2CCCCC2)C1=O` (stereo not given) [5-cyclohexylmethyl-3,5-dimethyl-4-hydroxy-5H-thiophen-2-one], the IC50 in assay [2], in assay [3], in assay [4] and in assay [1] was > 1 mM throughout.
In the case of `CC1C(=O)SC(C)(CCc2ccccc2)C1=O` (stereo not given) [3,5-dimethyl-4-hydroxy-5-phenethyl-5H-thiophen-2-one], the IC50 in assay [2], in assay [3], in assay [4] and in assay [1] was > 1 mM throughout.
As to `Cc1cccc(CC2(C)SC(=O)C(C)C2=O)c1` (stereo not given) [3,5-dimethyl-4-hydroxy-5-(3-methylbenzyl)-5H-thiophen-2-one], the IC50 in assay [2], in assay [3], in assay [4] and in assay [1] was > 1 mM each time.
As for `Cc1ccccc1CC1(C)SC(=O)C(C)C1=O` (stereo not given) [3,5-dimethyl-4-hydroxy-5-(2-methylbenzyl)-5H-thiophen-2-one], the IC50 in assay [2], in assay [3], in assay [4] and in assay [1] was > 1 mM each time.
For the molecule `CCCCCCCCC1(C)SC(=O)C(C)C1=O` (stereo not given) [4-Hydroxy-3,5-dimethyl-5-octyl-5H-thiophen-2-one], the IC50 in assay [4] and in assay [1] was > 0.1 mM each time.
In the case of `CCCCCCCCCCCCCCC1(C)SC(=O)C(C)C1=O` (stereo not given) [3,5-dimethyl-4-hydroxy-5-tetradecyl-5H-thiophen-2-one], the values for the IC50 in assay [3], in assay [4] and in assay [1] were > 0.1 mM, 0.08 mM and 0.1 mM, respectively.
For the molecule `Cc1ccc(CC2(C)SC(=O)C(C)C2=O)cc1` (stereo not given) [3,5-dimethyl-4-hydroxy-5-(4-methylbenzyl)-5H-thiophen-2-one], the IC50 in assay [2], in assay [3], in assay [4] and in assay [1] was > 1 mM throughout.
`COc1ccccc1CC1(C)SC(=O)C(C)C1=O` (stereo not given) [3,5-dimethyl-4-hydroxy-5-(2-methoxybenzyl)-5H-thiophen-2-one]: the IC50 was > 1 mM in assay [2], > 1 mM in assay [3], > 0.1 mM in assay [4] and > 1 mM in assay [1].
As for `CCCCCCCC1(C)SC(=O)C(C)C1=O` (stereo not given) [3,5-dimethyl-5-heptyl-4-hydroxy-5H-thiophen-2-one], the IC50 in assay [2], in assay [3], in assay [4] and in assay [1] was > 1 mM throughout.
As for `CC1C(=O)SC(C)(Cc2c(Cl)cccc2Cl)C1=O` (stereo not given) [5-(2,6-dichlorobenzyl)-3,5-dimethyl-4-hydroxy-5H-thiophen-2-one], the IC50 in assay [2], in assay [3], in assay [4] and in assay [1] was > 1 mM each time.
Turning to `CC1C(=O)SC(C)(CC2CCC2)C1=O` (stereo not given) [5-cyclobutylmethyl-3,5-dimethyl-4-hydroxy-5H-thiophen-2-one], the IC50 in assay [2], in assay [3], in assay [4] and in assay [1] was > 1 mM in each case.
For `CC1C(=O)SC(C)(Cc2ccc(Cl)cc2)C1=O` (stereo not given) [5-(4-chlorobenzyl)-3,5-dimethyl-4-hydroxy-5H-thiophen-2-one], the IC50 was > 1 mM in assay [2], > 1 mM in assay [3], > 0.1 mM in assay [4] and > 1 mM in assay [1].
Regarding `CC[C@H](C)CC1(C)SC(=O)C(C)C1=O` (stereo partly drawn) [3,5-dimethyl-4-hydroxy-5-((S)2-methylbutyl)-5H-thiophen-2-one], the IC50 in assay [1] was > 0.1 mM.
As to `CCCCCCCCCCCCCC1(C)SC(=O)C(C)C1=O` (stereo not given) [3,5-dimethyl-4-hydroxy-5-tridecyl-5H-thiophen-2-one], the values for the IC50 in assay [3], in assay [4] and in assay [1] were > 0.1 mM, 0.08 mM and 0.1 mM, respectively.
Regarding `CC(C)=CCC/C(C)=C/CC1(C)SC(=O)C(C)C1=O` (stereo not given) [5-((E)-3,7-Dimethyl-octa-2,6-dienyl)-4-hydroxy-3,5-dimethyl-5H-thiophen-2-one], it took 0.1 mM to reach half-maximal inhibition in assay [1] (IC50).
Consider `CC1C(=O)SC(C)(C2CCCCC2)C1=O` (stereo not given) [5-cyclohexyl-3,5-dimethyl-4-hydroxy-5H-thiophen-2-one], for which the IC50 in assay [4] was > 0.1 mM.
The same measure, in the same setting: the value for `CC1C(=O)SC(C)(Cc2ccc(Cl)cc2Cl)C1=O` (stereo not given) [5-(2,4-dichlorobenzyl)-3,5-dimethyl-4-hydroxy-5H-thiophen-2-one] was > 0.1 mM.
